According to patent US20210395239A1 (Hoffmann-La Roche Inc., priority 2018, published 2021):

Legend:
[1] = biological target: T1, CYP3A4 (Homo sapiens, UniProt P08684); assay: CYP inhibition assay in human liver microsome, CYP3A4; type: in vitro ADME; conditions: human, human liver microsomes, probe midazolam 5 μM, substrate midazolam 5 μM, third value of 2C9/2D6/3A4
T1 construct: tissue BD-Gentest 452117; host or cells: human liver microsomes
In short: (§1)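 Pooled human liver microsomes with a substrate for each CYP were incubated with compound at 37 °C after NADPH addition, for 5 min (CYP2D6: 10 min), then quenched with acetonitrile containing labelled metabolite standards. Metabolite/internal-standard peak area ratios were measured by RapidFire MS/MS. % inhibition was scaled between DMSO and standard-inhibitor controls.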

[2] = biological target: T2, CYP2D6 (Homo sapiens, UniProt P10635); assay: CYP inhibition assay in human liver microsome, CYP2D6; type: in vitro ADME; conditions: human, human liver microsomes, probe dextromethorphan 5 μM, substrate dextromethorphan 5 μM, second value of 2C9/2D6/3A4
T2 construct: tissue BD-Gentest 452117; host or cells: human liver microsomes
In short: as §1

[3] = biological target: T3, human TLR8 (Homo sapiens, UniProt Q9NR97); assay: HEK293-Blue-hTLR-8 cells assay (SEAP reporter, R848 stimulation); type: cell-based; conditions: HEK293-Blue-hTLR8 cells, R848, 20 hrs; read-out: HEK/hTLR8 IC50
T3 construct: host or cells: HEK293 (HEK-Blue hTLR8)
T3 sequence (Q9NR97 27-1041): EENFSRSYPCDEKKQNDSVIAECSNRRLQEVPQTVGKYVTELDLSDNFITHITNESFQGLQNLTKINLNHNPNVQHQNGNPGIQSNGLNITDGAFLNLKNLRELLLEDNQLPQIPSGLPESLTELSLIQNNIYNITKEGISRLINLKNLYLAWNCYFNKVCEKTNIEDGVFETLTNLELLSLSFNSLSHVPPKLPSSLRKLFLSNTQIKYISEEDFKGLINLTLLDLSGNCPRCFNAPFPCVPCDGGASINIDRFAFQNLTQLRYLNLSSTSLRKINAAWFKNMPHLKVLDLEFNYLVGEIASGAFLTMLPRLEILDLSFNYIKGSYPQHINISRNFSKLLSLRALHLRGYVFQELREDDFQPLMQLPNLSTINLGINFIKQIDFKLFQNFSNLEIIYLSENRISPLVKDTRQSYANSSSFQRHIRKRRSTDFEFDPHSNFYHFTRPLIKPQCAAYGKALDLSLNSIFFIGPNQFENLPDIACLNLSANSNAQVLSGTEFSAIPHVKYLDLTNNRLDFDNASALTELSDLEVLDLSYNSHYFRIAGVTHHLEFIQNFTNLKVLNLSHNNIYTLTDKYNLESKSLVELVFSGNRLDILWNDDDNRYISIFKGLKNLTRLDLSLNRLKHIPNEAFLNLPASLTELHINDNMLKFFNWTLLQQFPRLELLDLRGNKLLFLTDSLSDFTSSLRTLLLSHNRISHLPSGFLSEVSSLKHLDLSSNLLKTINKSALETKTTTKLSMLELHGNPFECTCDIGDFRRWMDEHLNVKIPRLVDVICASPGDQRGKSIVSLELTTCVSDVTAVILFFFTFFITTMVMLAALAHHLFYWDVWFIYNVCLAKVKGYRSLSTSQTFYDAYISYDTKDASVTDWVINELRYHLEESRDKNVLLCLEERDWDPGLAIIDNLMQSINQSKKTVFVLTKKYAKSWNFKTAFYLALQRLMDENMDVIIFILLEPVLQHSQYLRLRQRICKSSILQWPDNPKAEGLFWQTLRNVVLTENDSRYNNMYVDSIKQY
In short: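 Antagonism read as reduced R848-induced SEAP reporter secretion, detected by QUANTI-Blue absorbance at 620–655 nm after 2 h. Reporter cells were exposed to compound dilutions in DMEM/10% FBS, 1% DMSO, for 20 h at 37° C.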

T2 sequence (P10635 whole entry): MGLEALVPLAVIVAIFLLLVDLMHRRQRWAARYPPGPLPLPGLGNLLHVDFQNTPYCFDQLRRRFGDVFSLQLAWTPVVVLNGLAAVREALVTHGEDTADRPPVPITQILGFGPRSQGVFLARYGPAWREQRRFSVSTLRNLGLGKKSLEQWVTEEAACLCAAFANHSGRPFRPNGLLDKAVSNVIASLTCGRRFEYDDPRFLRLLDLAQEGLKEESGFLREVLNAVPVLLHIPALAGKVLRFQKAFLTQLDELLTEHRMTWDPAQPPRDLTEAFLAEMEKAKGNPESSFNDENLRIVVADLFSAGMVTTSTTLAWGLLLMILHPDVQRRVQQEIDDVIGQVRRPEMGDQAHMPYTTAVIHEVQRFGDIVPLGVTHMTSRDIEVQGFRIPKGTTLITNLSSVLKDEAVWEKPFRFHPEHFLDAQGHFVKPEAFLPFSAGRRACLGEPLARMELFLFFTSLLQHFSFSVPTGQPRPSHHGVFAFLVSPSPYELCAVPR
T1 sequence (P08684 whole entry): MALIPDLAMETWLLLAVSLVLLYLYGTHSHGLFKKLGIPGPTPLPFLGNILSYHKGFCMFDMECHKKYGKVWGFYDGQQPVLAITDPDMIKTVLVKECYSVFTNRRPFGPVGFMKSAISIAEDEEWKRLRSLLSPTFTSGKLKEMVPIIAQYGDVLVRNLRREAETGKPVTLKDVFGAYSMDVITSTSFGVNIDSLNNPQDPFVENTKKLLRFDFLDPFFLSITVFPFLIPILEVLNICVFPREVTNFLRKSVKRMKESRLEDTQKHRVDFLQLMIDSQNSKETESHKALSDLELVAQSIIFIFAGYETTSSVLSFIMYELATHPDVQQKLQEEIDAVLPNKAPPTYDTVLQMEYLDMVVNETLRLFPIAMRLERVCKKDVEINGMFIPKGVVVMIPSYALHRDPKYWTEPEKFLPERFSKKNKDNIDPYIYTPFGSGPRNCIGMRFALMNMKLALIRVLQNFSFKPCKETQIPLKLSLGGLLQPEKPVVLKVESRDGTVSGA

| inhibition at 5 min, 10 µM [1] [%] | inhibition at 10 min, 10 µM [2] [%] | IC50 [3] [nM] | SMILES |
| --- | --- | --- | --- |
| 44 | 11.5 | 34 | C[C@@H]1CN(c2ccc(C#N)n3ncc(F)c23)C[C@H](CN2CCN(c3ccc(N[C@H]4CNC[C@H]4F)nc3)CC2)O1 [Example 167, 3-fluoro-4-[(2S,6R)-2-[[4-[6-[[(3S,4R)-4-fluoropyrrolidin-3-yl]amino]-3-pyridyl]piperazin-1-yl]methyl]-6-methyl-morpholin-4-yl]pyrazolo[1,5-a]pyridine-7-carbonitrile] |
| 11 | 1.5 | 57 | C[C@@H]1CN(c2ccc(C#N)n3ncc(F)c23)C[C@H](CN2CCN(c3ccc(N4C[C@H]5NCCO[C@@H]5C4)nc3)CC2)O1 [Example 168, 4-[(2S,6R)-2-[[4-[6-[(4aR,7aR)-3,4,4a,5,7,7a-hexahydro-2H-pyrrolo[3,4-b][1,4]oxazin-6-yl]-3-pyridyl]piperazin-1-yl]methyl]-6-methyl-morpholin-4-yl]-3-fluoro-pyrazolo[1,5-a]pyridine-7-carbonitrile] |
| -7 | 0 | 13 | C[C@@H]1CN(c2ccc(C#N)n3ncc(F)c23)C[C@H](CN2CCN(c3ccc(N4CC5(CN(C)C5)C4)nc3)CC2)O1 [Example 170, 3-fluoro-4-[(2R,6S)-2-methyl-6-[[4-[6-(6-methyl-2,6-diazaspiro[3.3]heptan-2-yl)-3-pyridyl]piperazin-1-yl]methyl]morpholin-4-yl]pyrazolo[1,5-a]pyridine-7-carbonitrile] |
